Experimental data from ChEMBL document CHEMBL4184117, “Design, synthesis and anti-malarial activities of synthetic analogs of biselyngbyolide B, a Ca2+ pump inhibitor from marine cyanobacteria” (Bioorg Med Chem Lett, 2018).

Columns and labels:
MRC5 = test: Growth inhibition of human MRC5 cells after 7 days by MTT assay; format: cell-based; settings: MRC5, 168 h
HeLa = test: Growth inhibition of human HeLa cells after 72 hrs by MTT assay; format: cell-based
Plasmodium falciparum [1] = test: Antimalarial activity against chloroquine-resistant Plasmodium falciparum K1 infected in human type A+ erythrocytes assessed as growth inhibition after 72 hrs by LDH assay; format: functional, organism-based; settings: K1, 72 h
Plasmodium falciparum [2] = test: Antimalarial activity against chloroquine-sensitive Plasmodium falciparum FCR3 infected in human type A+ erythrocytes assessed as growth inhibition after 72 hrs by LDH assay; format: functional, organism-based; settings: FCR3, 72 h
[3] = molecular target: Sarcoplasmic/endoplasmic reticulum calcium ATPase 1 (Homo sapiens, UniProt O14983); test: Inhibition of SERCA1a (unknown origin) ATPase activity
Plasmodium falciparum [4] = test: Antimalarial activity against Plasmodium falciparum FcB1; format: functional, organism-based; settings: FcB1/Columbia
Plasmodium falciparum [5] = test: Antimalarial activity against Plasmodium falciparum 3D7; format: functional, organism-based

Sequence of Sarcoplasmic/endoplasmic reticulum calcium ATPase 1 (O14983 whole entry): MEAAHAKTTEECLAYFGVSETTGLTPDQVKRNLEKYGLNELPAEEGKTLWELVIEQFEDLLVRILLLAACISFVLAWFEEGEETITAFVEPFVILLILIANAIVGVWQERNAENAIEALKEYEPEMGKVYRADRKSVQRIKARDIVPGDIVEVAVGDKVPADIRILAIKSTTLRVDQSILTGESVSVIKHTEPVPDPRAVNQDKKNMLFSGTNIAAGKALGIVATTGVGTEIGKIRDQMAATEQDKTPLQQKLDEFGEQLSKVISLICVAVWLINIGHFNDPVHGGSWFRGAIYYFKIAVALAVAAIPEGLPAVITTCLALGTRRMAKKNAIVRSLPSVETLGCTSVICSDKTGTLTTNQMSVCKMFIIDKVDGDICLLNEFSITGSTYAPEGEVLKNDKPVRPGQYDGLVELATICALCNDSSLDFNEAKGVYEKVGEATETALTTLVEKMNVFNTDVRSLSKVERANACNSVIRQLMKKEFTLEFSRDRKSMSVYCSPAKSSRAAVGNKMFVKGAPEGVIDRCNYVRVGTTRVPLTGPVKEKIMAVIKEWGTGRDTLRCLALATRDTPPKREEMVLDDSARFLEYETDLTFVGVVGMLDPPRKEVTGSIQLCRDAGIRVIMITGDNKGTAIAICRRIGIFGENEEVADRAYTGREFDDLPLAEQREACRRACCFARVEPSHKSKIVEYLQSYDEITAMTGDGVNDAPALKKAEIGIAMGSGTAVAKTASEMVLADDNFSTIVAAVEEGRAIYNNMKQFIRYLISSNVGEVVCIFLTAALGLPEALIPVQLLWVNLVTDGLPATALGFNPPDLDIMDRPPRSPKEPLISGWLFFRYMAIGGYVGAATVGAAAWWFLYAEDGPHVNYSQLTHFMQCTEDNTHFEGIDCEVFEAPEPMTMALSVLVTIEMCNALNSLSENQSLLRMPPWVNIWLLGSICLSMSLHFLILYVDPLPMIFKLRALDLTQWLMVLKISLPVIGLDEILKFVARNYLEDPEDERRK

Structure (SMILES)	IC50 (MRC5)	IC50 (HeLa)	IC50 (Plasmodium falciparum [1])	IC50 (Plasmodium falciparum [2])	Ki [3]	IC50 (Plasmodium falciparum [4])	IC50 (Plasmodium falciparum [5])
CO[C@H]1C/C=C/[C@@H](O)CC(=O)O[C@@H](/C=C(/C)CNC(C)=O)C/C=C/C=C/C[C@H](C)/C=C/1C	3 µM	4.9 µM	19 µM	14 µM			
C/C=C/C/C(C)=C\[C@H]1C/C=C/C=C/C[C@H](C)/C=C(\C)[C@@H](OC)C/C=C/[C@@H](O[C@@H]2O[C@H](CO)[C@@H](O)[C@H](OC)[C@H]2O)CC(=O)O1	0.4 µM	2.5 µM	3.4 µM	4.4 µM	0.019 µM		
CCNC(=O)/C(C)=C\[C@H]1C/C=C/C=C/C[C@H](C)/C=C(\C)[C@@H](OC)C/C=C/[C@@H](O)CC(=O)O1	2.9 µM	9.2 µM	16 µM	17 µM			
C/C=C/C/C(C)=C\[C@H]1C/C=C/C=C/C[C@H](C)/C=C(\C)[C@@H](OC)C/C=C/[C@@H](O)CC(=O)O1	0.23 µM	0.0028 µM	24 µM	23.5 µM	0.017 µM		
CO[C@H]1C/C=C/[C@@H](O)CC(=O)O[C@@H](/C=C(/C)CO)C/C=C/C=C/C[C@H](C)/C=C/1C	19 µM	> 30 µM	> 31 µM	24 µM			
CC(=O)C1=C(O)[C@@H]2[C@H]3c4c[nH]c5cccc(c45)C[C@H]3C(C)(C)N2C1=O [CYCLOPIAZONIC ACID]					1.8 µM	4.9 µM	8.8 µM
C/C=C(/C)C(=O)O[C@H]1C(C)=C2[C@H]([C@@H]1OC(=O)CCCCCCC)[C@@](C)(OC(C)=O)C[C@H](OC(=O)CCC)[C@@]1(O)[C@H]2OC(=O)[C@@]1(C)O [THAPSIGARGIN]					0.0001 µM		
